Assay [1] addresses Cav2.2 (UniProt Q02294). Briefly: Oocyte assay (Xenopus oocyte heterologous expression, current at fifth pulse P5). The class given is cell-based. To be noted: Xenopus oocytes; fifth pulse (P5) of 5 Hz train, holding potential −100 mV. The protocol:
The assay was performed on various calcium channels (e.g., Cav2.2 subfamily) whereby the modulation of the calcium channel was measured for each tested compound.

The target of assay [2] is T1, Cav2.2 (Homo sapiens, UniProt Q00975).
T1 construct: expressed in transfected cells; host or cells: HEK-293T/17 (transient, FuGENE 6)
T1 sequence (Q00975 whole entry): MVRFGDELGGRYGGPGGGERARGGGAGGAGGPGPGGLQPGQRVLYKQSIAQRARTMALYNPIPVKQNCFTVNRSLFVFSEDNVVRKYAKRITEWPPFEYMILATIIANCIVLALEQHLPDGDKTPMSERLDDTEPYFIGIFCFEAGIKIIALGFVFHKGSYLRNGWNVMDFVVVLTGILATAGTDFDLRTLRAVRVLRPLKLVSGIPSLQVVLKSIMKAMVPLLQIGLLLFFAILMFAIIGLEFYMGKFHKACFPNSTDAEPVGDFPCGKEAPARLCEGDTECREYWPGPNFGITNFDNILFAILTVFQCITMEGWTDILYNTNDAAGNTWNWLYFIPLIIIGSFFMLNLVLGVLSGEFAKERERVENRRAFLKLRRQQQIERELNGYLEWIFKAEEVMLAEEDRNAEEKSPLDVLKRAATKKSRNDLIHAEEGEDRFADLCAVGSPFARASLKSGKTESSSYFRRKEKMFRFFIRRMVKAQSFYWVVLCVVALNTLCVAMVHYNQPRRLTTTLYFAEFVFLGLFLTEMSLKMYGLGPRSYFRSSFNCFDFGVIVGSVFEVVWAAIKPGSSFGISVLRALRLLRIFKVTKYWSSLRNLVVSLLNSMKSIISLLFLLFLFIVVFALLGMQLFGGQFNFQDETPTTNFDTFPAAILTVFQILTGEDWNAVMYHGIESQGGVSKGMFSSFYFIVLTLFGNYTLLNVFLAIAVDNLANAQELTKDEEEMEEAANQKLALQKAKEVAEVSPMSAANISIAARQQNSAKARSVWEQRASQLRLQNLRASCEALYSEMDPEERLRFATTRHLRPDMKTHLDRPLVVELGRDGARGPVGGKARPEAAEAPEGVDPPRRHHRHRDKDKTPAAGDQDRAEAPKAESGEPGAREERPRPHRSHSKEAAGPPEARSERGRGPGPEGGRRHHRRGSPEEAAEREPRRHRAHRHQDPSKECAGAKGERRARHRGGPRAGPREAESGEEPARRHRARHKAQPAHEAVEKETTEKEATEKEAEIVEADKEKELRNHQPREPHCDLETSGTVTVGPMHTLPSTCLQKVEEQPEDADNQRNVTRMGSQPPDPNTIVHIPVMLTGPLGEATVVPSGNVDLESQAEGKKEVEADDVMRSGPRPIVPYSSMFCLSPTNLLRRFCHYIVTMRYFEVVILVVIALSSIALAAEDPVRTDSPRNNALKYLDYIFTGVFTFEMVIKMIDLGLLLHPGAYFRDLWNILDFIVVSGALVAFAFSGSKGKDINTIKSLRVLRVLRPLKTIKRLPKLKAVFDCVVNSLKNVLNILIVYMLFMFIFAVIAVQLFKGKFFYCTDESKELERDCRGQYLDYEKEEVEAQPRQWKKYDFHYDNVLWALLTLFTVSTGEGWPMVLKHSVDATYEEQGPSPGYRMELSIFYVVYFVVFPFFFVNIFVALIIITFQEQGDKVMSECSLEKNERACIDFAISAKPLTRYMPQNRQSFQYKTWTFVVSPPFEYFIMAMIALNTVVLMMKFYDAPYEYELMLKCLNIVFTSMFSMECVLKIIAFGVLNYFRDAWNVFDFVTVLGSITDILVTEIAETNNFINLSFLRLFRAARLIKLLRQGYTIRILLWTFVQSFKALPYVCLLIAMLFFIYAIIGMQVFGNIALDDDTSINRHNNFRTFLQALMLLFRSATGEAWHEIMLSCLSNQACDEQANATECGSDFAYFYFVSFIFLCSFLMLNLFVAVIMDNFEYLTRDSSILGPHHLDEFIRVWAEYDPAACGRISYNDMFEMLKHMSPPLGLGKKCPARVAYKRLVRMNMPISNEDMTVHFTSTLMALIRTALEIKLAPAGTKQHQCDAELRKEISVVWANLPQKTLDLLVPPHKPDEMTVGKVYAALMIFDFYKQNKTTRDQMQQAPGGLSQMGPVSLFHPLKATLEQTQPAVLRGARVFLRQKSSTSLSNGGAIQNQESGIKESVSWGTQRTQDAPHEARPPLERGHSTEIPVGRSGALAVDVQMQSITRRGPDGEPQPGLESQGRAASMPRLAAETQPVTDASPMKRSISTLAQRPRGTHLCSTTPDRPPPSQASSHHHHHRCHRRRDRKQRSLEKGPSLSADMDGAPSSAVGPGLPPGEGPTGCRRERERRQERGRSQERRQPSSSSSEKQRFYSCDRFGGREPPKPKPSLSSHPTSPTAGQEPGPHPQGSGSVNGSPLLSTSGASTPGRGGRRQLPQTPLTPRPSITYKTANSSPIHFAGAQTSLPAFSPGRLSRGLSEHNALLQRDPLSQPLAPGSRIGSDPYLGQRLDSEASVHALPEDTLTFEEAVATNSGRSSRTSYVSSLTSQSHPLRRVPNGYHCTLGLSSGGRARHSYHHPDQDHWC
T1 sequence (P54284 whole entry partner): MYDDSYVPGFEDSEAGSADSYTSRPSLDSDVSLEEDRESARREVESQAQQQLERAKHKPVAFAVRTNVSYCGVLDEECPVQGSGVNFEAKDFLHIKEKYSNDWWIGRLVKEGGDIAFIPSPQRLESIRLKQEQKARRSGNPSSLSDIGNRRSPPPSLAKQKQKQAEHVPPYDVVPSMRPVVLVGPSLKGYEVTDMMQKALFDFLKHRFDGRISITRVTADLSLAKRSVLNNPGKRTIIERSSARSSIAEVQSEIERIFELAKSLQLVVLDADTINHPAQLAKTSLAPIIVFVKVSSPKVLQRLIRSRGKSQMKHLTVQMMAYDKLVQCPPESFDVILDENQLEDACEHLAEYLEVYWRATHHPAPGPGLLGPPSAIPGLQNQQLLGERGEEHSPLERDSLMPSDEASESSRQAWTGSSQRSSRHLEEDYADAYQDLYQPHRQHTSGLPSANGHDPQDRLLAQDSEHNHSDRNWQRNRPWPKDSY
T1 sequence (P54289 25-946 partner limits assumed): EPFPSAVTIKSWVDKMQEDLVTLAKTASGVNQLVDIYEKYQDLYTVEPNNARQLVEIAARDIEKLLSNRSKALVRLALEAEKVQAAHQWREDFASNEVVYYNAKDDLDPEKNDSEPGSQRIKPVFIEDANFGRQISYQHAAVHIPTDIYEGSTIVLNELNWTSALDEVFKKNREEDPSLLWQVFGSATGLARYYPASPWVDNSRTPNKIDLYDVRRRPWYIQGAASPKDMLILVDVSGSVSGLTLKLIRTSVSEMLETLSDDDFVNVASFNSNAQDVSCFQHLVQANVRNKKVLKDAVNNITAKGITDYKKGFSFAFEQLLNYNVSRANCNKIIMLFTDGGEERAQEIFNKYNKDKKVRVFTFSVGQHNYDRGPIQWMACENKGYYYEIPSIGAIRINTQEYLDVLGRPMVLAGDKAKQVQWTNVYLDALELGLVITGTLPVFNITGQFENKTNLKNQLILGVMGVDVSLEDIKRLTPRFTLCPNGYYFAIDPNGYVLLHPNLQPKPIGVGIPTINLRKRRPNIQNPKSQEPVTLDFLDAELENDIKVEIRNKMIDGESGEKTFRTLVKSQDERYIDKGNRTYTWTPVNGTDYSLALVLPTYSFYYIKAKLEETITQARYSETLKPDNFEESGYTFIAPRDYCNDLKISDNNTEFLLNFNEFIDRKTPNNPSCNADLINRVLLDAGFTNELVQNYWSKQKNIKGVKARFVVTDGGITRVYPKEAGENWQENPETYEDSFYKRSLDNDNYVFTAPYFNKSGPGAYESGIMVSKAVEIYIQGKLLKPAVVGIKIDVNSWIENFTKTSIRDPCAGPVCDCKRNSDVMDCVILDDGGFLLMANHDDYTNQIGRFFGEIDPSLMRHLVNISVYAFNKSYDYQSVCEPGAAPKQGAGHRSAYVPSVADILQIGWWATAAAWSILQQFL
T1 sequence (P54289 947-1103 partner limits assumed): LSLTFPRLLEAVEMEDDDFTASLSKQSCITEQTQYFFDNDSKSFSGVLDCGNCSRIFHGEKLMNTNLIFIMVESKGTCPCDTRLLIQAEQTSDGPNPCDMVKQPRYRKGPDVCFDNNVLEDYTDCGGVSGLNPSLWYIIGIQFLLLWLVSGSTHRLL
Briefly: HEK assay (whole-cell patch clamp, transiently transfected HEK-293T/17 cells, pulses P1 and P5). Format: cell-based. The following applies: holding potential −100 mV. The procedure, abridged:
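Whole-cell voltage clamp of HEK-293T/17 cells transiently transfected via FuGENE 6, then grown 24 h in 1% serum before recording. From −100 mV holding, trains of five 20–30 ms steps to about +10 mV at 5 Hz, repeated every 30 s; steady-state IC50s taken at first (P1) and fifth (P5) pulses to gauge use-dependent block.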
A general note: In patch-clamp work, channel activity is measured electrically.

[3] abbreviates: fifth pulse (P5) of 5 Hz train, read-out: HEK Cav2.2 P5 IC50.
The mark [4] stands for this setting: first pulse (P1) of 5 Hz train, read-out: HEK Cav2.2 P1 IC50.

SMILES strings stand for the structures. Counter-ions that a name gives are not always drawn. Like-named read-outs stand apart in the source and are kept apart here.

Usually IC50 stands for the concentration that gives 50% inhibition. As to `CC(C)(C)C(=O)N(Cc1csc(N2CCCCC2)n1)c1ccc(F)cc1` [Compound 2, N-(4-fluorophenyl)-2,2-dimethyl-N-(2-piperidin-1-yl-thiazol-4-ylmethyl)-propionamide hydrochloride], the IC50 was 16.9 µM on Cav2.2 [1], 2000 nM at Cav2.2 [2] (setting [3]) and 16800 nM at Cav2.2 [2] (setting [4]).
Regarding `CCC(C)(C)C(=O)N(Cc1ccc(N2CCN(C)CC2)nc1)c1ccccc1C(C)C` [Compound 35, N-(2-Isopropyl-phenyl)-2,2-dimethyl-N-[6-(4-methyl-piperazin-1-yl)-pyridin-3-ylmethyl]-butyramide], the IC50 against Cav2.2 [1] came to 13.2 µM; at Cav2.2 [2] (setting [3]), 1400 nM; on Cav2.2 [2] (setting [4]), 4400 nM.
Regarding `CN(CCc1ccccn1)c1ccc(CN(C(=O)C(C)(C)C)c2ccc(F)cc2)cn1` [Compound 18, N-(4-Fluorophenyl)-2,2-dimethyl-N-{6-[methyl-(2-pyridin-2-yl-ethyl)-amino]-pyridin-3-ylmethyl}-propionamide], the half-inhibitory concentration (IC50) was 7.1 µM on Cav2.2 [1], 1700 nM at Cav2.2 [2] (setting [3]) and 4000 nM at Cav2.2 [2] (setting [4]).
`CN1CCN(c2ccc(CN(C(=O)C3CCCCC3)c3ccc(F)cc3)cn2)CC1` [Compound 104, Cyclohexanecarboxylic acid (4-fluorophenyl)-[6-(4-methyl-piperazin-1-yl)-pyridin-3-ylmethyl]-amide]: the IC50 came out at 22 µM against Cav2.2 [1], 2500 nM at Cav2.2 [2] (setting [3]) and 14100 nM at Cav2.2 [2] (setting [4]).
Take `CN(CCc1cccnc1)c1ccc(CN(C(=O)C(C)(C)C)c2ccc(F)cc2)cn1` [Compound 27, N-(4-Fluorophenyl)-2,2-dimethyl-N-{6-[methyl-(2-pyridin-3-yl-ethyl)-amino]-pyridin-3-ylmethyl}-propionamide]: the IC50 on Cav2.2 [1] turned out to be 5.2 µM; on Cav2.2 [2] (setting [3]), 1100 nM; at Cav2.2 [2] (setting [4]), 4600 nM.
For `CCN(c1nc(CN(C(=O)C(C)(C)C)c2ccc(F)cc2)cs1)C1CC1` [Compound 83, N-[2-(Cyclopropyl(ethyl)amino)-thiazol-4-ylmethyl]-N-(4-fluorophenyl)-2,2-dimethyl-propionamide], in that order: 7.1 µM, 1000 nM and 3300 nM.
Regarding `CC(C)c1ccccc1N(Cc1ccc(N2CCN(C)CC2)nc1)C(=O)C(C)(C)C` [Compound 30, N-(2-Isopropyl-phenyl)-2,2-dimethyl-N-[6-(4-methyl-piperazin-1-yl)-pyridin-3-ylmethyl]-propionamide], the results for the IC50 at Cav2.2 [1], on Cav2.2 [2] (setting [3]) and at Cav2.2 [2] (setting [4]) were 23.6 µM, 2700 nM and 18900 nM, respectively.
In the case of `CCC(C)(C)C(=O)N(Cc1ccc(N2CCN(c3ccccn3)CC2)nc1)c1ccc(F)cc1` [Compound 26, N-(4-Fluorophenyl)-2,2-dimethyl-N-[6-(4-pyridin-2-yl-piperazin-1-yl)-pyridin-3-ylmethyl]-butyamide], the results for the IC50 against Cav2.2 [1], at Cav2.2 [2] (setting [3]) and at Cav2.2 [2] (setting [4]) were 12.2 µM, 400 nM and 1700 nM, respectively.
For `CN(CCOc1ccccn1)c1ccc(CN(C(=O)C(C)(C)C)c2ccc(F)cc2)cn1` [Compound 29, N-(4-Fluorophenyl)-2,2-dimethyl-N-(6-{methyl-[2-(pyridin-2-yloxy)-ethyl]-amino}-pyridin-3-ylmethyl)-propanamide], the IC50 came to 8.7 µM against Cav2.2 [1], 1000 nM at Cav2.2 [2] (setting [3]) and 5200 nM on Cav2.2 [2] (setting [4]).

Source of the values: patent US20100267697A1, “ION CHANNEL MODULATORS” (Wyeth, priority 2006, published 2010).
